≈ marks a conversion by molar mass, not a printed value.
Legend:
Bacillus subtilis 168CA = assay: Minimum Inhibitory Concentration (MIC) testing, broth microdilution, Bacillus subtilis; type: cell-based; settings: Bacillus subtilis 168CA; for MIC: read-out: Bacillus subtilis MICs Activity
Experimental: (§1) Compounds of this invention were tested for antimicrobial activity by susceptibility testing in liquid media. MICs for compounds against each strain were determined by a broth microdilution method according to the National Committee for Clinical Laboratory Standards (NCCLS) guidelines. (NCCLS. 2000. Methods for dilution antimicrobial susceptibility tests for bacteria that grow aerobically—fifth edition. Approved standard M7-A5. NCCLS, Wayne, Pa.)
(§2) Briefly, test compounds are prepared in 100 μl of 1.6% DMSO solution in multiwell plates. Several bacterial colonies from a freshly streaked plate are transferred to an appropriate rich broth, such as Mueller Hinton. The cell suspension is adjusted to an optical density of 0.09 and further diluted 1:100 with warm 2× broth. This cell suspension is dispensed into the wells containing compound solution so that the final volume is 200 μl. The plates are incubated overnight (16-20 hours) at 37° C. and turbidity is scored by eye and quantified spectrophotometrically. The MIC is defined as the lowest concentration inhibiting visible growth.
Activities were scored as ‘A’ if the MIC was ≦8 micrograms/ml, ‘B’ if the MIC was 16 to 64 micrograms/ml and ‘C’ if the MIC was greater than 64 micrograms/ml.

[1] = test system: Staphylococcus aureus ATCC29213; assay: Minimum Inhibitory Concentration (MIC) testing, broth microdilution, Staphylococcus aureus; type: cell-based; settings: Staphylococcus aureus ATCC29213; for MIC: read-out: Staphylococcus aureus MICs Activity
Experimental: as §1, §2
Some of the compounds of the Examples were also tested for activity against the pathogenic organism Staphylococcus aureus ATCC29213. […] Activities were again scored as ‘A’ if the MIC was ≦8 micrograms/ml, ‘B’ if the MIC was 16 to 64 micrograms/ml and ‘C’ if the MIC was greater than 64 micrograms/ml.

MIC (Bacillus subtilis 168CA) [µg/mL] | MIC [1] [µg/mL] | Compound | Bacillus subtilis MICs Activity (Bacillus subtilis 168CA) | Staphylococcus aureus MICs Activity [1]
< 8 | 16 to 64 (≈ 48.4 to 194 µM) | NC(=O)c1c(F)ccc(OCc2nc(-c3ccccc3)co2)c1F [Example 310, 2,6-Difluoro-3-(4-phenyl-oxazol-2-ylmethoxy)-benzamide] | – | –
< 8 | < 8 | NC(=O)c1c(F)ccc(OCc2nc3cc(Cl)ncc3s2)c1F [Example 156, 3-(6-Chloro-thiazolo[5,4-c]pyridin-2-ylmethoxy)-2,6-difluoro-benzamide] | – | –
< 8 | < 8 | NC(=O)c1c(F)ccc(OCc2nc(-c3cccc(O)c3)no2)c1F [Example 257, 2,6-Difluoro-3-[3-(3-hydroxyphenyl)-1,2,4-oxadiazol-5-yl]methoxybenzenecarboxamide] | – | –
16 to 64 (≈ 59.4 to 238 µM) | 16 to 64 (≈ 59.4 to 238 µM) | NC(=O)c1c(F)ccc(OCc2ccsc2)c1F [Example 188, 2,6-Difluoro-3-(3-thienylmethoxy)benzenecarboxamide] | – | –
< 8 | < 8 | NC(=O)c1c(F)ccc(OCc2nc(CCc3ccccc3)cs2)c1F [Example 122, 2,6-Difluoro-3-(4-phenethyl-thiazol-2-ylmethoxy)-benzamide] | – | –
16 to 64 (≈ 47.3 to 189 µM) | 16 to 64 (≈ 47.3 to 189 µM) | NC(=O)c1c(F)ccc(OCc2nc(-c3nccs3)no2)c1F [Example 326, 2,6-Difluoro-3-(3-thiazol-2-yl-[1,2,4]oxadiazol-5-ylmethoxy)-benzamide] | – | –
< 8 | 16 to 64 (≈ 48.7 to 195 µM) | Cc1cccc2ccc(COc3ccc(F)c(C(N)=O)c3F)nc12 [Example 146, 2,6-Difluoro-3-(8-methyl-quinolin-2-ylmethoxy)-benzamide] | – | –
< 8 | < 8 | NC(=O)c1c(F)ccc(OCc2nc(-c3ccc(Cl)cc3)c(Br)s2)c1F [Example 159, 3-[5-Bromo-4-(4-chloro-phenyl)-thiazol-2-ylmethoxy]-2,6-difluoro-benzamide] | – | –
< 8 | < 8 | NC(=O)c1c(F)ccc(OCc2cccc(OC(F)(F)F)c2)c1F [Example 107, 2,6-Difluoro-3-(3-trifluoromethoxybenzyloxy)benzamide] | – | –
< 8 | 16 to 64 (≈ 44.4 to 178 µM) | CC(C)(C)c1ccc2oc(COc3ccc(F)c(C(N)=O)c3F)nc2c1 [Example 213, 3-[5-(tert-Butyl)-1,3-benzoxazol-2-yl]methoxy-2,6-difluorobenzenecarboxamide] | – | –
16 to 64 (≈ 49.8 to 199 µM) | 16 to 64 (≈ 49.8 to 199 µM) | COC(=O)c1cccc(COc2ccc(F)c(C(N)=O)c2F)c1 [Example 108, 3-(3-Carbamoyl-2,4-difluoro-phenoxymethyl)-benzoic acid methyl ester] | – | –
> 64 | > 64 | Cn1ccnc1COc1ccc(F)c(C(N)=O)c1F [Example 194, 2,6-Difluoro-3-[(1-methyl-1H-imidazol-2-yl)methoxy]benzenecarboxamide] | – | –
16 to 64 (≈ 46.1 to 184 µM) | < 8 | NC(=O)c1c(F)ccc(OCc2nc(-c3ccccn3)cs2)c1F [Example 115, 2,6-Difluoro-3-(4-pyridin-2-yl-thiazol-2-ylmethoxy)-benzamide] | – | –
< 8 | < 8 | NC(=O)c1c(F)ccc(OCc2nc(-c3ccccc3)no2)c1F [Example 240, 2,6-Difluoro-3-[(3-phenyl-1,2,4-oxadiazol-5-yl)methoxy]benzenecarboxamide] | – | –
< 8 | < 8 | NC(=O)c1c(F)ccc(OCc2nc3cccc(Cl)c3s2)c1F [Example 104, 2,6-Difluoro-3-(7-chloro-benzothiazol-2-ylmethoxy)-benzamide] | – | –
16 to 64 (≈ 54.2 to 217 µM) | 16 to 64 (≈ 54.2 to 217 µM) | Cc1cc(COc2ccc(F)c(C(N)=O)c2F)ccc1F [Example 147, 2,6-Difluoro-3-(4-fluoro-3-methyl-benzyloxy)-benzamide] | – | –
16 to 64 (≈ 54.6 to 218 µM) | 16 to 64 (≈ 54.6 to 218 µM) | COc1cccc(COc2ccc(F)c(C(N)=O)c2F)c1 [Example 116, 2,6-Difluoro-3-(3-methoxybenzyloxy)-benzamide] | – | –
< 8 | < 8 | NC(=O)c1c(F)ccc(OCc2nc(-c3ccc(OC(F)(F)F)cc3)no2)c1F [Example 292] | – | –
< 8 | – | NC(=O)c1c(F)ccc(OCc2nc(-c3cccc(C(F)(F)F)c3)no2)c1F [Example 258, 2,6-Difluoro-3-(3-[3-(trifluoromethyl)phenyl]-1,2,4-oxadiazol-5-ylmethoxy)benzenecarboxamide] | – | –
< 8 | – | Cc1ccc2nc(COc3ccc(F)c(C(N)=O)c3F)ccc2c1 [Example 97, 2,6-Difluoro-3-(6-methyl-quinolin-2-ylmethoxy)-benzamide] | – | –

More lines, now with the values behind:

Compound | MIC (Bacillus subtilis 168CA) [µg/mL] | MIC [1] [µg/mL] | Bacillus subtilis MICs Activity (Bacillus subtilis 168CA) | Staphylococcus aureus MICs Activity [1]
Cc1noc(C)c1-c1nc(COc2ccc(F)c(C(N)=O)c2F)no1 [Example 145, 3-[5-(3,5-Dimethyl-isoxazol-4-yl)-[1,2,4]oxadiazol-3-ylmethoxy]-2,6-difluoro-benzamide] | 16 to 64 (≈ 45.7 to 183 µM) | > 64 | – | –
COc1ccc(-c2nc(COc3ccc(F)c(C(N)=O)c3F)sc2-c2ccccc2N)cc1 [Example 283, 2,6-Difluoro-3-[5-(2-amino-phenyl)-4-(4-methoxy-phenyl)-thiazol-2-ylmethoxy]-benzamide] | < 8 | < 8 | – | –
COc1ccc(-c2nc(COc3ccc(F)c(C(N)=O)c3F)sc2-c2ccccc2OC)cc1 [Example 280, 2,6-Difluoro-3-[5-(2-methoxy-phenyl)-4-(4-methoxy-phenyl)-thiazol-2-ylmethoxy]-benzamide] | < 8 | < 8 | – | –
COc1ccc(-c2nc(COc3ccc(F)c(C(N)=O)c3F)sc2-c2cscn2)cc1 [Example 288, 2,6-Difluoro-3-[4′-(4-methoxy-phenyl)-[4,5′]bithiazolyl-2′-ylmethoxy]-benzamide] | < 8 | < 8 | – | –
CC/C=C\CC/C=C/COc1cccc(C(N)=O)c1 [Example 56, 3-[(2E,6Z)-2,6-Nonadienyloxy]benzenecarboxamide] | < 8 | < 8 | – | –
NC(=O)c1c(F)ccc(OCc2nc(Cc3ccccc3)cs2)c1F [Example 137, 3-(4-Benzyl-thiazol-2-ylmethoxy)-2,6-difluoro benzamide] | – | – | B (‘B’ if the MIC was 16 to 64 micrograms/ml) | B (‘B’ if the MIC was 16 to 64 micrograms/ml)
NC(=O)c1c(F)ccc(OCc2csc(-c3ccc(OC(F)(F)F)cc3)n2)c1F [Example 307, 2,6-Difluoro-3-[2-(4-trifluoromethoxy-phenyl)-thiazol-4-ylmethoxy]-benzamide] | < 8 | < 8 | – | –
COc1ccc(-c2nc(COc3ccc(F)c(C(N)=O)c3F)sc2C2CC2)cc1 [Example 286, 3-[5-Cyclopropyl-4-(4-methoxy-phenyl)-thiazol-2-ylmethoxy]-2,6-difluoro-benzamide] | < 8 | < 8 | – | –
C/C=C/COc1cccc(C(N)=O)c1 [Example 30, 3-[2-Butenyloxy]benzenecarboxamide] | > 64 | > 64 | – | –
NC(=O)c1c(F)ccc(OCCn2cccn2)c1F [Example 144, 2,6-Difluoro-3-(2-pyrazol-1-yl-ethoxy) benzamide] | – | – | C (‘C’ if the MIC was greater than 64 micrograms/ml) | C (‘C’ if the MIC was greater than 64 micrograms/ml)
COC(=O)c1sc(COc2ccc(F)c(C(N)=O)c2F)nc1-c1ccc(OC)cc1 [Example 313, 2-(3-Carbamoyl-2,4-difluoro-phenoxymethyl)-4-(4-methoxy-phenyl)-thiazole-5-carboxylic acid methyl ester] | < 8 | < 8 | – | –
CC/C=C\CCCCOc1ccc(F)c(C(N)=O)c1 [Example 73, 2-Fluoro-5-[(Z)-5-octenyloxy]benzenecarboxamide] | < 8 | < 8 | – | –
CCCCCC#CCCOc1cccc(C(N)=O)c1 [Example 51, 3-(3-Nonynyloxy)benzenecarboxamide] | < 8 | 16 to 64 (≈ 61.7 to 247 µM) | – | –
NC(=O)c1c(F)ccc(OCc2nc3cc(-c4cccc(O)c4)ccc3s2)c1F [Example 136, 2,6-Difluoro-3-[5-(3-hydroxy-phenyl)-benzothiazol-2-ylmethoxy]-benzamide] | < 8 | < 8 | – | –
CCCCCOc1cccc(C(N)=O)c1 [Example 5, 3-(Pentyloxy)benzenecarboxamide] | 16 to 64 (≈ 77.2 to 309 µM) | 16 to 64 (≈ 77.2 to 309 µM) | – | –
NC(=O)c1cccc(OCCCCO)c1 [Example 42, 3-(4-Hydroxybutoxy)benzenecarboxamide] | 16 to 64 (≈ 76.5 to 306 µM) | 16 to 64 (≈ 76.5 to 306 µM) | – | –
NC(=O)c1cccc(OCn2cccn2)c1 [Example 168, 3-(Pyrazol-1-ylmethoxy)-benzamide] | > 64 | > 64 | – | –
COc1ccc(CCOc2cccc(C(N)=O)c2)cc1 [Example 35, 3-[(4-Methoxyphenethyl)oxy]benzenecarboxamide] | 16 to 64 (≈ 59 to 236 µM) | – | – | –
CC(C)Oc1cccc(C(N)=O)c1 [Example 3, 3-Isopropoxybenzenecarboxamide] | > 64 | – | – | –
CCOC(=O)CCCCCOc1cccc(C(N)=O)c1 [Example 37, Ethyl 6-[3-(aminocarbonyl)phenoxy]hexanoate] | > 64 | – | – | –

Source: patent US8088791B2, “Antibacterial agents” (Biots Scientific Management Pty Ltd, priority 2006, dated 2012)
